{"source": "patent US7718161B2", "about": "“Method for treating a motoneuron disorder” (UCB Pharma GmbH, priority 2004, dated 2010)", "key": {"[1]": {"tested_on": "SOD mutant mice", "experiment": "Hanging test in SOD mutant mice", "type": "in vivo, mouse", "conditions": "twice daily intraperitoneally from day 60", "experimental": "(§1) The transgenic mouse strain used for this study is G1H (Gurney et al., 1994). The animals begin to show signs of posterior limb weakness at around 3 months of age and die at 4 months.\n(§2) 40 mice are included in the study and divided into 4 groups of 10 mice. • a SOD vehicle group • a SOD treated group (SPM 927 3 mg/kg) • a SOD treated group (SPM 927 10 mg/kg) • a SOD treated group (SPM 927 30 mg/kg)\n(§3) • Rotarod test: this test evaluates the ability of the animal to stay on a rotating dowel allowing evaluation of motor coordination and proprioceptive sensitivity. The apparatus is a 3 cm diameter automated rod which turns at 12 rounds per minute (Bioseb, Paris, France). The rotarod test measures how long the mouse can maintain itself on the axle without falling. The test is stopped after an arbitrary limit of 120 s. Should the animal fall down before 120 s, the performance is recorded and two additional trials are performed. The mean time of 3 trials is calculated. […] The number of times the mice put their paws through the grid is counted and serves as a measure for motor coordination. • Hanging test: this test evaluates the ability of the animal to hang on a wire. […] The time needed by the animal to catch the string with its hindpaws is recorded (60 s maximum) during three consecutive trials. […]"}, "[2]": {"tested_on": "SOD mutant mice", "experiment": "Electromyographic recordings (compound muscle action potential) in SOD mutant mice", "type": "in vivo, mouse", "experimental": "as §1, §2\n(§4) Animals were weighed every day. The general status of the mice was checked daily, especially for the presence of tremor, for skin aspect and for muscle wasting. EMG testing was performed once every week, starting on D70 of age until the death of the animals. The survival rate and the interval from symptom onset until death were recorded.\nElectromyographic recordings were performed using a Neuromatic 2000M electromyography apparatus. During EMG the mice are anesthetized (60 mg kg-1, Imalgène®). The measured parameters are the amplitude and the latency of the compound muscle action potential (CMAP). CMAP is measured in gastrocnemius muscle after stimulation of the sciatic nerve. A reference electrode is inserted near the Achilles tendon and an active needle placed at the base of the tail. A ground needle is inserted on the lower back of the mouse. […] The amplitude (mV) and the latency of the response (ms) are measured. […]"}, "[3]": {"tested_on": "SOD mutant mice", "experiment": "Rotarod test in SOD mutant mice", "type": "in vivo, mouse", "conditions": "twice daily intraperitoneally from day 60", "experimental": "as §1, §2, §3"}, "[4]": {"tested_on": "SOD mutant mice", "experiment": "Grid test in SOD mutant mice", "type": "in vivo, mouse", "experimental": "as §1, §2, §3"}, "[5]": {"tested_on": "SOD mutant mice", "experiment": "Survival in the SOD mutant mouse model of ALS", "type": "in vivo", "experimental": "The present study investigates the effects of SPM 927 to protect or to reduce impairments observed in this ALS model. For this purpose behavioral measurements and EMGs are performed in SOD-G93A mice overexpressing mutant human Cu, Zn SOD.\nas §1, §2, §4\nThe animals were treated from day 60 (before the beginning of the clinical signs) until the animal's death. The treatment was administered twice daily intraperitoneally.\nA global analysis of the data was made using one factor or repeated measures analysis of variance (ANOVA). […]"}, "[6]": {"conditions": "twice daily intraperitoneally from day 60, dose not given"}}, "note": "Entries after “also recorded” stand apart in the source; their conditions may differ.", "data": [{"substance": "(R)-2-acetamide-N-benzyl-3-methoxypropionamide [SPM 927]", "values": [{"measurement": "motor symptoms in the hanging test", "setting": "[1]", "result": "alleviates motor symptoms"}, {"measurement": "motor impairment (latency of compound muscle action potential)", "setting": "[2]; FIG. 3, 10 mg/kg, twice daily intraperitoneally", "result": "attenuates motor impairment"}, {"measurement": "EMG abnormalities", "setting": "[2]; [6]", "result": "attenuates motor symptoms including abnormalities in electrophysiological recordings (EMG)"}, {"measurement": "motor symptoms in the rotarod test", "setting": "[3]", "result": "alleviates motor symptoms"}, {"measurement": "motor impairment (grid performance)", "setting": "[4]; FIG. 2, 30 mg/kg, twice daily intraperitoneally", "result": "attenuates motor impairment"}, {"measurement": "motor symptoms in the grid test", "setting": "[4]; [6]", "result": "alleviates motor symptoms"}, {"measurement": "life-span of SOD mutant mice", "setting": "[5]; FIG. 1, 3, 10, 30 mg/kg twice daily intraperitoneally from day 60 until death", "result": "dose dependently prolongs life-span"}, {"measurement": "survival time after onset of symptoms", "setting": "[5]; chronic treatment twice daily intraperitoneally from day 60, G1H SOD-G93A mice", "result": "prolongs survival time after symptom onset; also recorded: prolongs survival time after onset of symptoms"}]}]}
